Entries after “also recorded” stand apart in the source; their conditions may differ.
Assays:
diabetic (db/db) mice = assay: Electrophysiology (CMAP, NCV) in diabetic mice; type: in vivo, mouse; conditions: after 30 days of treatment
Procedure: Standard electroneurography was performed before, during and after TRO 19622 drug treatment on CMT1A rats and diabetic mice that were anesthetized with 3% isoflurane. A pair of steel needle electrodes (AD Instruments, MLA1302, Oxford, UK) was placed subcutaneously along the nerve at sciatic notch (proximal stimulation). A second pair of electrodes was placed along the tibial nerve above the ankle (distal stimulation). Supramaximal square wave pulses lasting 10 ms and 1 mA for mice and 3.6 mA for rats were delivered using a PowerLab 26T (AD Instruments, Oxford, UK). Compound muscle action potential (CMAP) was recorded from the intrinsic foot muscles using steel electrodes. Both amplitudes and latencies of CMAP were determined. The distance between the two sites of stimulation was measured alongside the skin surface with fully extended legs, and nerve conduction velocities (NCVs) were calculated automatically from sciatic nerve latency measurements (for further details Fledrich et al., 2014^10).
As previously reported^37, 38, we observed a reduction of the nerve conduction velocity in db/db diabetic mice with no change in the amplitude of the compound of action potentials (CMAP).

mSC mitochondria = assay: Mitochondrial motility imaging (mito-dsRed2) in mSC of mouse sciatic nerve; type: in vivo; conditions: after nerve crush
Procedure: (§1) Mice were anesthetized with isoflurane inhalation and placed under a Stemi2000 microscope (Zeiss). Incision area was shaved and cleaned using betadine solution. After incision, the gluteus superficialis and biceps femoris muscles were separated to reveal the cavity traversed by the sciatic nerve. The nerve was lift out using spatula and a thin glass needle filled with viral solution (8 μl) was introduced into the nerve with a micromanipulator. This solution was injected over 30 min with short pressure pulses using a Picospritzer III (Parker Hannifin) coupled to a pulse generator. After injection, the nerve was replaced into the cavity, the muscles were readjusted, and the wound was closed using clips (for further details see Gonzalez et al., 2014^3).
(§2) TRO19622 drug (Tocris bioscience, Ref. 2906) was diluted in ethanol to 20 mM and then, the solution was diluted in sterile PBS to 20 μM. TRO19622 treatments were realized by 3 mg/kg intraperitoneal (IP) injections of 20 mM solution or by intra sciatic nerve injections of 2 μl of drug solution 2 μM using a Hamilton syringe or a glass needle in sterile conditions 30 minutes before multiphoton image acquisitions or immunohistochemistry and demyelination studies respectively. Methyl jasmonate drug (Sigma-Aldrich, Ref. 392707) was diluted in 1 ml of sterile PBS to 1M or 3M. Methyl jasmonate treatments were realized by intra sciatic nerve injections of 1 μl of drug solution using a glass needle and micromanipulator in sterile conditions following the same virus injections procedure (see in vivo virus injection in the sciatic nerve method) two hours before multiphoton image acquisition. […] All drug concentrations were previously evaluated by Bordet et al, 2007^5; Goldin et al, 2008^6; Sharov et al, 2007^7.
(§3) First injected mouse was anesthetized with 5% of isoflurane a 1.5% of oxygen into the anesthesia system box (World Precision Instruments, Ref. EZ-B800) for 5 minutes. Anesthesia controls were realized^8. Then, mouse was placed in anesthesia mask and the incision area was shaved and cleaned with betadine and ethanol 70% solution. Incision was realized using a scalpel and the skin was retracted using forceps in order to expose the gluteus superficialis and bleeps femoris muscles. Next, the connective tissue that connects both muscles was cut and the sciatic nerve was gently lifted out using a spatula. A flexible bridge was slide below sciatic nerve and it was placed into a plastic first pool fixed to the bridge. Mouse was placed under the multiphoton microscope, the bridge was fixed using magnetic brackets to avoid physiological movement and mouse legs were fixed using clippers. Microscope dark box temperature is controlled to 37° C. during all time-lapse imaging. Finally, a second pool was fixed to the first pool using a drop of agarose low melting 3% (Promega, Ref. V2111) in Leibovitz's L15 medium (Gibco Life Technologies) and filled with deionized water to immerse the objectives 20× or 63× (Carl Zeiss Microscopy).
All time-lapse images were obtained with a multiphoton microscope Zeiss LSM 7 MP OPO. Mitochondria motility images were acquired by time-lapse recording of one image every five minutes during five hours at 920 nm. GCaMP2 and SypHer probe images were acquired by time-lapse recording of one image every fifteen minutes during five hours at 985 nm. Images were acquired to constant 1% of laser intensity to 100 msec of acquisition time with 512×512 resolution and 10 images of z-stack of 20 μm. […]

VDAC1 [1] = target: T1, VDAC1 (Mus musculus, UniProt Q60932); assay: Fluorescent probe imaging of mSC mitochondria in diabetic db/db mice, basal conditions; type: in vivo
T1 construct: strongly expressed in mSC mitochondria; from tissue; host or cells: myelinating Schwann cells (mSC) of the sciatic nerve of living mice (wild type; db/db and +/db in A10)
T1 sequence (Q60932 14-296): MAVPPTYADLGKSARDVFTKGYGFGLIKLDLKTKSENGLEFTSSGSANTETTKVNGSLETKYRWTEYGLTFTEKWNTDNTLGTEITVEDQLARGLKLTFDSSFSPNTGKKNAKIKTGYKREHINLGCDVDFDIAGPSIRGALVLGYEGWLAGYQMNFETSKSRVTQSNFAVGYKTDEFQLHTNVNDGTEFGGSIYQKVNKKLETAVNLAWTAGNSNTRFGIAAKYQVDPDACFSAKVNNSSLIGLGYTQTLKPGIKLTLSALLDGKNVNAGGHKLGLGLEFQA
Procedure: as §1
TRO19622 drug (Tocris bioscience, Ref. 2906) was diluted in ethanol to 20 mM and then, the solution was diluted in sterile PBS to 20 μM. TRO19622 treatments were realized by 3 mg/kg intraperitoneal (IP) injections of 20 mM solution or by intra sciatic nerve injections of 2 μl of drug solution 2 μM using a Hamilton syringe or a glass needle in sterile conditions 30 minutes before multiphoton image acquisitions or immunohistochemistry and demyelination studies respectively. […] All drug concentrations were previously evaluated by Bordet et al, 2007^5; Goldin et al, 2008^6; Sharov et al, 2007^7. […]

VDAC1 [2] = target: T1, VDAC1; assay: Mitochondrial calcium imaging (mito-GCaMP2, multiphoton) in mSC of mouse sciatic nerve, nerve crush model; type: in vivo; conditions: mito-GCaMP2; VDAC1 silenced or drug given before crush
Procedure: as §1, §2, §3
All time-lapse images were obtained with a multiphoton microscope Zeiss LSM 7 MP OPO. Mitochondria motility images were acquired by time-lapse recording of one image every five minutes during five hours at 920 nm. GCaMP2 and SypHer probe images were acquired by time-lapse recording of one image every fifteen minutes during five hours at 985 nm. Images were acquired to constant 1% of laser intensity to 100 msec of acquisition time with 512×512 resolution and 10 images of z-stack of 20 μm. Images were saved in Zeiss .czi format and processed using Image J program. For further details see Gonzalez et al., 201X^8
To characterize mitochondria physiology during the demyelination process we combined two in vivo methods. We used the nerve crush model to reliably induce demyelination in the mouse sciatic nerve and a viral approach^19 allowing the expression of different fluorescent probes selectively into mitochondria of myelinating Schwann cells (mSC) in mouse sciatic nerve.

SMILES: CC(C)CCC[C@@H](C)[C@H]1CC[C@H]2[C@@H]3CCC4=C/C(=N\O)CC[C@]4(C)[C@H]3CC[C@]12C [TRO19622, (NZ)—N-[(8S,9S,10R,13R,14S,17R)-10,13-dimethyl-17-[(2R)-6-methylheptan-2-yl]-1,2,6,7,8,9,11,12,14,15,16,17-dodecahydrocyclopenta[a]phenanthren-3-ylidene]hydroxylamine]
- CMAP amplitude (diabetic (db/db) mice): without change
- nerve conduction velocity (diabetic (db/db) mice): significantly increased to reach control mice velocity
- changes induced by nerve crush in mitochondrial motility not abrogated (mSC mitochondria): 20%
- mitochondrial motility (VDAC1 [1]): increased
- mitochondrial pH (VDAC1 [1]): significantly reduced
- mitochondrial calcium release in mSC after nerve crush (VDAC1 [2]): able to block calcium release from mitochondria; also recorded: completely abolished; also recorded: blocks mitochondrial calcium release

Reference: US12053480B2, “Methods and pharmaceutical compositions for treating peripheral demyelinating diseases” (INSERM (INSTITUT NATIONAL DE LA SANTE ET DE LA RECHERCHE …, priority 2015, dated 2024)
